Reference: the supplement of paper PMC10307832

compound: O=C(NC1CCNCC1)c1n[nH]cc1NC(=O)c1c(Cl)cccc1Cl [AT-7519] + Cc1nc(Nc2ncc(C(=O)Nc3c(C)cccc3Cl)s2)cc(N2CCN(CCO)CC2)n1 [Dasatinib] (partner 0.075 µM); assay: relative viability (nuclei count vs DMSO), 5 days (fraction); higher = more cells survive; details: first compound 1 µM
Summary of the method: (§1)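 Each reported value is a median over duplicate plates. It expresses relative viability: treated-well nuclei count divided by vehicle-well nuclei count. Lung cancer cell lines in 1536-well plates were dosed by pin tool a day after seeding, alone with one drug or with a fixed anchor-drug dose plus five library-drug doses (not always all listed) in √10 steps, and nuclei were counted after 5 days.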

Cell Line	relative viability
NCI-H1437	0.486
NCI-H1755	0.409
NCI-H2023	0.231
HCC-15	0.191
PC-14	0.0573
EKVX	0.449
LC-2-ad	0.332
NCI-H1975	0.127
RERF-LC-KJ	0.195

compound: O=C(NC1CCNCC1)c1n[nH]cc1NC(=O)c1c(Cl)cccc1Cl [AT-7519] + O=C(CCCCCCC(=O)Nc1ccccc1)NO [Vorinostat] (partner 1 µM); assay: as above; details: first compound 0.01 µM
Summary of the method: as §1

Cell Line	relative viability
ChaGo-K-1	0.734
NCI-H2405	1.08
HOP-62	0.555
LU99A	0.481
BEN	0.6
HARA	0.479
HCC-78	0.411
NCI-H322M	0.846
LCLC-97TM1	0.955
NCI-H2009	0.782
A-427	0.894
NCI-H441	0.838
NCI-H661	0.792
NCI-H1734	0.723
NCI-H460	0.569
NCI-H2347	0.463
SK-LU-1	0.805
201T	0.975
NCI-H1915	0.537

Cell Line	relative viability
HCC-827	0.928
LXF-289	0.815
NCI-H23	0.598
NCI-H647	0.568
CAL-12T	0.777
NCI-H1651	0.606
EPLC-272H	0.406
NCI-H2228	0.406
NCI-H1355	0.65
NCI-H3122	1.06
NCI-H1437	0.815
NCI-H1755	0.769
NCI-H2023	0.759
HCC-15	0.857
PC-14	0.838
EKVX	0.671
LC-2-ad	0.717
NCI-H1975	0.805
RERF-LC-KJ	0.776

same assay, conditions: first compound 0.03162 µM

Cell Line	relative viability
ChaGo-K-1	0.741
NCI-H2405	0.988
HOP-62	0.608
LU99A	0.462
BEN	0.537
HARA	0.527
HCC-78	0.409
NCI-H322M	0.982
LCLC-97TM1	0.703
NCI-H2009	0.725
A-427	0.863
NCI-H441	0.834
NCI-H661	0.829
NCI-H1734	0.831
NCI-H460	0.619
NCI-H2347	0.527
SK-LU-1	0.725
201T	0.952
NCI-H1915	0.558

Cell Line	relative viability
HCC-827	0.827
LXF-289	0.884
NCI-H23	0.619
NCI-H647	0.369
CAL-12T	0.653
NCI-H1651	0.505
EPLC-272H	0.328
NCI-H2228	0.671
NCI-H1355	0.624
NCI-H3122	1.07
NCI-H1437	0.842
NCI-H1755	0.693
NCI-H2023	0.503
HCC-15	0.796
PC-14	0.668
EKVX	0.636
LC-2-ad	0.665
NCI-H1975	0.679
RERF-LC-KJ	0.666

same assay, conditions: first compound 0.3162 µM

Cell Line	relative viability
ChaGo-K-1	0.797
NCI-H2405	0.954
HOP-62	0.682
LU99A	0.469
BEN	0.593
HARA	0.588
HCC-78	0.438
NCI-H322M	0.731
LCLC-97TM1	0.526
NCI-H2009	0.81
A-427	0.927
NCI-H441	0.796
NCI-H661	0.867
NCI-H1734	0.739
NCI-H460	0.674
NCI-H2347	0.637
SK-LU-1	0.693
201T	1.01
NCI-H1915	0.588

Cell Line	relative viability
HCC-827	0.958
LXF-289	0.771
NCI-H23	0.513
NCI-H647	0.562
CAL-12T	0.543
NCI-H1651	0.56
EPLC-272H	0.36
NCI-H2228	0.572
NCI-H1355	0.661
NCI-H3122	1.04
NCI-H1437	0.929
NCI-H1755	0.839
NCI-H2023	0.46
HCC-15	0.799
PC-14	0.621
EKVX	0.535
LC-2-ad	0.748
NCI-H1975	0.624
RERF-LC-KJ	0.631

same assay, conditions: first compound 1 µM

Cell Line	relative viability
ChaGo-K-1	0.752
NCI-H2405	0.852
HOP-62	0.565
LU99A	0.448
BEN	0.579
HARA	0.223
HCC-78	0.417
NCI-H322M	0.83
LCLC-97TM1	0.379
NCI-H2009	0.746
A-427	0.768
NCI-H441	0.693
NCI-H661	0.261
NCI-H1734	0.535
NCI-H460	0.0847
NCI-H2347	0.379
SK-LU-1	0.544
201T	1.12
NCI-H1915	0.546

Cell Line	relative viability
HCC-827	1.02
LXF-289	0.773
NCI-H23	0.4
NCI-H647	0.244
CAL-12T	0.108
NCI-H1651	0.643
EPLC-272H	0.0395
NCI-H2228	0.517
NCI-H1355	0.598
NCI-H3122	0.757
NCI-H1437	0.353
NCI-H1755	0.814
NCI-H2023	0.269
HCC-15	0.565
PC-14	0.388
EKVX	0.786
LC-2-ad	0.781
NCI-H1975	0.27
RERF-LC-KJ	0.459
